Test system: hyposmic patients
Experiment: Subjective responses in smell, flavor and taste function (1-100 scale) after oral theophylline
Assay type: in vivo, human
Source text: The term “subjective improvement” as used herein and its grammatical equivalents can refer to measurements of improvement in perception for all external odors based upon a scale of 1-100 with 100 indicating complete recovery of normal smell function with responses from 1-100 scaled appropriately. […] Subjective improvement in taste function can also be measured with changes in taste for salt, sweet, sour and bitter tastants measured on the same 1-100 scale with 100 indicating return to normal for each of the four tastants considered and responses <100 scaled consistently less.
Thirty-one of the hyposmic patients were treated with oral theophylline with a dose range of 200-800 mg taken over a period of 2-10 months. These patients were 18 men, aged 12-78 y, 62+5 y, with six with PIHH, 10 with allergic rhinitis, one with congenital smell loss and one post anesthesia and 13 women, aged 12-67 y, 42±6 y, with four with PIHH, one with allergic rhinitis and eight with congenital smell loss. Improvement in smell function consisted of improvement in both subjective responses to oral theophylline and in olfactometry. Subjective improvement in smell function consisted of measurements of improvement in perception for all external odors based upon a scale of 1-100 with 100 indicating complete recovery of normal smell function with responses from 1-100 scaled appropriately. […] Subjective improvement in taste function was also measured with changes in taste for salt, sweet, sour and bitter tastants measured on the same 1-100 scale with 100 indicating return to normal for each of the four tastants considered and responses <100 scaled consistently less. Improvement by olfactometry was indicated by decreased DT or RT (increased sensitivity), increased ME (increased sensitivity) and changes in H consistent with decreased distortions.

[1] = 31 patients, oral theophylline, listed as ORAL THEOPHYLLINE
[2] = 31 patients, oral theophylline, listed as oral theophylline
[3] = oral theophylline, scale 1-100, listed as ORAL THEOPHYLLINE
[4] = oral theophylline, scale 1-100, listed as oral theophylline

## Cn1c(=O)c2[nH]cnc2n(C)c1=O [theophylline]
31 patients, oral theophylline
  FLAVOR FUNCTION IMPROVED, number of patients: 19
  FLAVOR FUNCTION NOT IMPROVED, % of patients studied: [39] %
  FLAVOR FUNCTION NOT IMPROVED, number of patients: 12
  SMELL FUNCTION NOT IMPROVED, % of patients studied: [39] %
  SMELL FUNCTION NOT IMPROVED, number of patients: 12
  TASTE FUNCTION IMPROVED, number of patients: 20
  TASTE FUNCTION NOT IMPROVED, % of patients studied: [36] %
  TASTE FUNCTION NOT IMPROVED, number of patients: 11
31 patients, oral theophylline 200-800 mg for 2-10 months
  SMELL FUNCTION IMPROVED, number of patients: 19
31 patients, oral theophylline 200-800 mg for 2-10 months, listed as ORAL THEOPHYLLINE
  SMELL FUNCTION IMPROVED, % of patients studied: [61] %
31 patients, oral theophylline 200-800 mg for 2-10 months, listed as oral theophylline
  SMELL FUNCTION IMPROVED, % of patients studied: 61%
[1]
  FLAVOR FUNCTION IMPROVED, % of patients studied: [61] %
  TASTE FUNCTION IMPROVED, % of patients studied: [64]^d %
[2]
  FLAVOR FUNCTION IMPROVED, % of patients studied: 61%
  TASTE FUNCTION IMPROVED, % of patients studied: 64%
Improved patients (19), scale 1-100
  SMELL FUNCTION IMPROVED, RESPONSE RANGE: 2-100%
Improved patients (19), scale 1-100, listed as ORAL THEOPHYLLINE
  SMELL FUNCTION IMPROVED, RESPONSE Mean ± SEM: 34 ± 6%
Improved patients (19), scale 1-100, listed as oral theophylline
  SMELL FUNCTION IMPROVED, RESPONSE Mean ± SEM: 34±6%
Oral theophylline
  FLAVOR FUNCTION NOT IMPROVED, RESPONSE Mean ± SEM: 0
  FLAVOR FUNCTION NOT IMPROVED, RESPONSE RANGE: 0%
  SMELL FUNCTION IMPROVED MEN, number of patients: 11
  SMELL FUNCTION NOT IMPROVED, RESPONSE Mean ± SEM: 0
  SMELL FUNCTION NOT IMPROVED, RESPONSE RANGE: 0%
  TASTE FUNCTION NOT IMPROVED, RESPONSE Mean ± SEM: 0
  TASTE FUNCTION NOT IMPROVED, RESPONSE RANGE: 0%
Oral theophylline, scale 1-100
  FLAVOR FUNCTION IMPROVED, RESPONSE Mean ± SEM: 43 ± 8
  FLAVOR FUNCTION IMPROVED, RESPONSE RANGE: 1-100%
  SMELL FUNCTION IMPROVED MEN, RESPONSE RANGE: 3-95%
  SMELL FUNCTION IMPROVED WOMEN, RESPONSE RANGE: 2-100%
  TASTE FUNCTION IMPROVED, RESPONSE Mean ± SEM: 47 ± 8
  TASTE FUNCTION IMPROVED, RESPONSE RANGE: 3-100%
[3]
  SMELL FUNCTION IMPROVED MEN, RESPONSE Mean ± SEM: 27 ± 9%
  SMELL FUNCTION IMPROVED WOMEN, RESPONSE Mean ± SEM: 43 ± 17%
[4]
  SMELL FUNCTION IMPROVED MEN, RESPONSE Mean ± SEM: 27±9%
  SMELL FUNCTION IMPROVED WOMEN, RESPONSE Mean ± SEM: 43±17%
Oral theophylline, listed as ORAL THEOPHYLLINE
  SMELL FUNCTION IMPROVED WOMEN, number of patients: 8
Oral theophylline, listed as oral theophylline
  SMELL FUNCTION IMPROVED WOMEN, number of patients: eight

Reference: patent US10598672B2, “Methods and compositions for diagnosing and treating loss and/or distortion of taste or smell” (Cyrano Therapeutics, Inc., priority 2014, dated 2020)
